Experimental data reported in the supplement of paper PMC10883282.
± gives the standard deviation of the averaged measurements.

Key:
Experiment in all cases: relative viability vs DMSO control (72 h) (fraction); higher = more viable cells
A204 = system: A204
Procedure, shortened: (§1)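 Sarcoma cell lines were seeded in 384-well plates at densities chosen for 80–90% confluence, then 24 h later given 2.5 µl of serially diluted compound drawn from source plates spanning 10 mM to 0.0002 mM. They were held 72 h at 37 °C, 5% CO2, with 0.1% DMSO vehicle and a 5 µM positive control included. Relative viability was read with ATPLite as percent growth and averaged over up to triplicate wells. Rescaling placed full at 1 and none at 0.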

G401 = system: G401
Procedure, shortened: as §1

HS729 = system: HS729
Procedure, shortened: as §1

KHOS-240S = system: KHOS-240S
Procedure, shortened: as §1

MES-SA = system: MES-SA
Procedure, shortened: as §1

RD = system: RD
Procedure, shortened: as §1

SK-ES-1 = system: SK-ES-1
Procedure, shortened: as §1

SK-LMS-1 = system: SK-LMS-1
Procedure, shortened: as §1

SW1353 = system: SW1353
Procedure, shortened: as §1

SW872 = system: SW872
Procedure, shortened: as §1

SW982 = system: SW982
Procedure, shortened: as §1

VA-ES-BJ = system: VA-ES-BJ
Procedure, shortened: as §1

Cn1cc(C2=C(c3cn(C4CCN(Cc5ccccn5)CC4)c4ccccc34)C(=O)NC2=O)c2ccccc21 [Enzastaurin]
Conditions	relative viability
A204, 0.00017 µM	1.07 ± 0.022
A204, 0.00051 µM	1.13 ± 0.037
A204, 0.00152 µM	1.13 ± 0.051
A204, 0.00457 µM	1.12 ± 0.089
A204, 0.01372 µM	1.11 ± 0.023
A204, 0.04115 µM	1.07 ± 0.043
A204, 0.1235 µM	1.07 ± 0.022
A204, 0.3704 µM	1.1 ± 0.015
A204, 1.111 µM	1.09 ± 0.061
A204, 3.333 µM	1.08 ± 0.03
A204, 10 µM	0.906 ± 0.042
G401, 0.00017 µM	1.08 ± 0.021
G401, 0.00051 µM	1.1 ± 0.043
G401, 0.00152 µM	1.07 ± 0.05
G401, 0.00457 µM	1.04 ± 0.018
G401, 0.01372 µM	1.05 ± 0.035
G401, 0.04115 µM	1.05 ± 0.015
G401, 0.1235 µM	1.09 ± 0.031
G401, 0.3704 µM	1.06 ± 0.016
G401, 1.111 µM	1.13 ± 0.069
G401, 3.333 µM	1.21 ± 0.063
G401, 10 µM	1.31 ± 0.065
HS729, 0.00017 µM	1.06 ± 0.039
HS729, 0.00051 µM	1.09 ± 0.059
HS729, 0.00152 µM	1.07 ± 0.093
HS729, 0.00457 µM	1.07 ± 0.029
HS729, 0.01372 µM	1.05 ± 0.14
HS729, 0.04115 µM	1.05 ± 0.11
HS729, 0.1235 µM	1.01 ± 0.12
HS729, 0.3704 µM	1.02 ± 0.067
HS729, 1.111 µM	1.06 ± 0.12
HS729, 3.333 µM	1.13 ± 0.11
HS729, 10 µM	1.15 ± 0.15
KHOS-240S, 0.00017 µM	1.06 ± 0.034
KHOS-240S, 0.00051 µM	1.1 ± 0.06
KHOS-240S, 0.00152 µM	1.08 ± 0.029
KHOS-240S, 0.00457 µM	1.09 ± 0.071
KHOS-240S, 0.01372 µM	1.1 ± 0.071
KHOS-240S, 0.04115 µM	1.09 ± 0.039
KHOS-240S, 0.1235 µM	1.07 ± 0.043
KHOS-240S, 0.3704 µM	1.08 ± 0.036
KHOS-240S, 1.111 µM	1.08 ± 0.042
KHOS-240S, 3.333 µM	1.01 ± 0.013
KHOS-240S, 10 µM	0.732 ± 0.034
MES-SA, 0.00017 µM	1.01 ± 0.023
MES-SA, 0.00051 µM	0.997 ± 0.011
MES-SA, 0.00152 µM	0.994 ± 0.035
MES-SA, 0.00457 µM	0.99 ± 0.015
MES-SA, 0.01372 µM	0.959 ± 0.018
MES-SA, 0.04115 µM	1.003 ± 0.0047
MES-SA, 0.1235 µM	0.942 ± 0.024
MES-SA, 0.3704 µM	0.97 ± 0.021
MES-SA, 1.111 µM	0.952 ± 0.043
MES-SA, 3.333 µM	0.964 ± 0.012
MES-SA, 10 µM	0.659 ± 0.033
RD, 0.00017 µM	1.08 ± 0.043
RD, 0.00051 µM	1.07 ± 0.04
RD, 0.00152 µM	1.08 ± 0.077
RD, 0.00457 µM	1.1 ± 0.05
RD, 0.01372 µM	1.1 ± 0.047
RD, 0.04115 µM	1.09 ± 0.036
RD, 0.1235 µM	1.1 ± 0.045
RD, 0.3704 µM	1.1 ± 0.076
RD, 1.111 µM	1.12 ± 0.036
RD, 3.333 µM	1.1 ± 0.065
RD, 10 µM	0.978 ± 0.028
SK-ES-1, 0.00017 µM	1.09 ± 0.042
SK-ES-1, 0.00051 µM	1.06 ± 0.046
SK-ES-1, 0.00152 µM	1.11 ± 0.052
SK-ES-1, 0.00457 µM	1.08 ± 0.023
SK-ES-1, 0.01372 µM	1.11 ± 0.016
SK-ES-1, 0.04115 µM	1.08 ± 0.012
SK-ES-1, 0.1235 µM	1.08 ± 0.025
SK-ES-1, 0.3704 µM	1.04 ± 0.061
SK-ES-1, 1.111 µM	1.11 ± 0.016
SK-ES-1, 3.333 µM	1.1 ± 0.062
SK-ES-1, 10 µM	0.914 ± 0.051
SK-LMS-1, 0.00017 µM	1.08 ± 0.035
SK-LMS-1, 0.00051 µM	1.07 ± 0.066
SK-LMS-1, 0.00152 µM	1.07 ± 0.044
SK-LMS-1, 0.00457 µM	1.04 ± 0.047
SK-LMS-1, 0.01372 µM	1.047 ± 0.0023
SK-LMS-1, 0.04115 µM	1.071 ± 0.0078
SK-LMS-1, 0.1235 µM	1.05 ± 0.014
SK-LMS-1, 0.3704 µM	1.06 ± 0.048
SK-LMS-1, 1.111 µM	0.9757 ± 0.0072
SK-LMS-1, 3.333 µM	0.841 ± 0.029
SK-LMS-1, 10 µM	0.746 ± 0.023
SW872, 0.00017 µM	1.07 ± 0.044
SW872, 0.00051 µM	1.09 ± 0.048
SW872, 0.00152 µM	1.08 ± 0.051
SW872, 0.00457 µM	1.06 ± 0.039
SW872, 0.01372 µM	1.01 ± 0.0027
SW872, 0.04115 µM	1.08 ± 0.022
SW872, 0.1235 µM	1.04 ± 0.057
SW872, 0.3704 µM	1.09 ± 0.028
SW872, 1.111 µM	1.05 ± 0.043
SW872, 3.333 µM	1.06 ± 0.026
SW872, 10 µM	0.96 ± 0.056
SW982, 0.00017 µM	1.06 ± 0.037
SW982, 0.00051 µM	1.06 ± 0.014
SW982, 0.00152 µM	1.08 ± 0.013
SW982, 0.00457 µM	1.08 ± 0.025
SW982, 0.01372 µM	1.08 ± 0.027
SW982, 0.04115 µM	1.069 ± 0.01
SW982, 0.1235 µM	1.05 ± 0.029
SW982, 0.3704 µM	1.06 ± 0.0093
SW982, 1.111 µM	1.012 ± 0.0074
SW982, 3.333 µM	0.903 ± 0.031
SW982, 10 µM	0.679 ± 0.054
SW1353, 0.00017 µM	1.1 ± 0.045
SW1353, 0.00051 µM	1.09 ± 0.028
SW1353, 0.00152 µM	1.104 ± 0.0092
SW1353, 0.00457 µM	1.1 ± 0.033
SW1353, 0.01372 µM	1.08 ± 0.052
SW1353, 0.04115 µM	1.09 ± 0.031
SW1353, 0.1235 µM	1.07 ± 0.031
SW1353, 0.3704 µM	1.04 ± 0.045
SW1353, 1.111 µM	0.949 ± 0.057
SW1353, 3.333 µM	0.857 ± 0.012
SW1353, 10 µM	0.809 ± 0.056
VA-ES-BJ, 0.00017 µM	1.08 ± 0.023
VA-ES-BJ, 0.00051 µM	1.12 ± 0.019
VA-ES-BJ, 0.00152 µM	1.11 ± 0.036
VA-ES-BJ, 0.00457 µM	1.09 ± 0.05
VA-ES-BJ, 0.01372 µM	1.07 ± 0.016
VA-ES-BJ, 0.04115 µM	1.06 ± 0.046
VA-ES-BJ, 0.1235 µM	1.06 ± 0.032
VA-ES-BJ, 0.3704 µM	1.08 ± 0.041
VA-ES-BJ, 1.111 µM	1.11 ± 0.022
VA-ES-BJ, 3.333 µM	1.19 ± 0.074
VA-ES-BJ, 10 µM	1.21 ± 0.088
